These are literature values, as cited in PubChem BioAssay AID1259409 (Chemical Carcinogenesis Research Information System (CCRIS), 2018).

The subject of the data set is rodent chemically induced tumor inhibition, incidence and multiplicity. Description: CCRIS tumor inhibitor studies. The note with it: for tumour outcome (control, treated, inhibition, significance): Dose [Inhibitor]: 0.

Consider `C=CCSCC=C`, for which the “tumour outcome (control, treated, inhibition, significance)” value is 3/16 (19%), 0/18 (0%), 100%, not calculated (Carcinogen: DIETHYLNITROSAMINE, 55-18-5, N-METHYL-N-NITROSOUREA, 684-93-5, N,N-DIBUTYLNITROSAMINE, 924-16-3, Carcinogen: DIETHYLNITROSAMINE, 55-18-5, N-METHYL-N-NITROSOUREA, 684-93-5, N,N-DIBUTYLNITROSAMINE, 924-16-3, 0.5% IN DIET BEGINNING POST CARCINOGEN TREATMENT AND CONTINUING TO WK 40 (STUDY DURATION: 40 WK), Route [Inhibitor]: ORAL, Species: RAT, Strain/Sex: F344/MALE, Target Tissue: Type of Lesion: LUNG: CARCINOMA, Dose [Carcinogen]: 100 MG/KG DIETHYLNITROSAMINE ONCE FOLLOWED BY 20 MG/KG N-METHYL-N-NITROSOUREA ON D 2, 5, 8 AND 11 THEN 0.05% N-N-DIBUTYL, Promoter: NONE USED); 8/16 (50%), 2/18 (11%), 78%, p<0.02 (Carcinogen: DIETHYLNITROSAMINE, 55-18-5, N-METHYL-N-NITROSOUREA, 684-93-5, N,N-DIBUTYLNITROSAMINE, 924-16-3, Carcinogen: DIETHYLNITROSAMINE, 55-18-5, N-METHYL-N-NITROSOUREA, 684-93-5, N,N-DIBUTYLNITROSAMINE, 924-16-3, 0.5% IN DIET BEGINNING POST CARCINOGEN TREATMENT AND CONTINUING TO WK 40 (STUDY DURATION: 40 WK), Route [Inhibitor]: ORAL, Species: RAT, Strain/Sex: F344/MALE, Target Tissue: Type of Lesion: THYROID: ADENOMA, Dose [Carcinogen]: 100 MG/KG DIETHYLNITROSAMINE ONCE FOLLOWED BY 20 MG/KG N-METHYL-N-NITROSOUREA ON D 2, 5, 8 AND 11 THEN 0.05% N-N-DIBUTYL, Promoter: NONE USED); 2/16 (13%), 0/18 (0%), 100%, not calculated (Carcinogen: DIETHYLNITROSAMINE, 55-18-5, N-METHYL-N-NITROSOUREA, 684-93-5, N,N-DIBUTYLNITROSAMINE, 924-16-3, Carcinogen: DIETHYLNITROSAMINE, 55-18-5, N-METHYL-N-NITROSOUREA, 684-93-5, N,N-DIBUTYLNITROSAMINE, 924-16-3, 0.5% IN DIET BEGINNING POST CARCINOGEN TREATMENT AND CONTINUING TO WK 40 (STUDY DURATION: 40 WK), Route [Inhibitor]: ORAL, Species: RAT, Strain/Sex: F344/MALE, Target Tissue: Type of Lesion: THYROID: CARCINOMA, Dose [Carcinogen]: 100 MG/KG DIETHYLNITROSAMINE ONCE FOLLOWED BY 20 MG/KG N-METHYL-N-NITROSOUREA ON D 2, 5, 8 AND 11 THEN 0.05% N-N-DIBUTYL, Promoter: NONE USED); 1/16 (6%), 0/18 (0%), 100%, not calculated (Carcinogen: DIETHYLNITROSAMINE, 55-18-5, N-METHYL-N-NITROSOUREA, 684-93-5, N,N-DIBUTYLNITROSAMINE, 924-16-3, Carcinogen: DIETHYLNITROSAMINE, 55-18-5, N-METHYL-N-NITROSOUREA, 684-93-5, N,N-DIBUTYLNITROSAMINE, 924-16-3, 0.5% IN DIET BEGINNING POST CARCINOGEN TREATMENT AND CONTINUING TO WK 40 (STUDY DURATION: 40 WK), Route [Inhibitor]: ORAL, Species: RAT, Strain/Sex: F344/MALE, Target Tissue: Type of Lesion: URINARY BLADDER: CARCINOMA, Dose [Carcinogen]: 100 MG/KG DIETHYLNITROSAMINE ONCE FOLLOWED BY 20 MG/KG N-METHYL-N-NITROSOUREA ON D 2, 5, 8 AND 11 THEN 0.05% N-N-DIBUTYL, Promoter: NONE USED); 4/16 (25%), 2/18 (11%), 56%, not calculated (Carcinogen: DIETHYLNITROSAMINE, 55-18-5, N-METHYL-N-NITROSOUREA, 684-93-5 N,N-DIBUTYLNITROSAMINE, 924-16-3, Carcinogen: DIETHYLNITROSAMINE, 55-18-5, N-METHYL-N-NITROSOUREA, 684-93-5 N,N-DIBUTYLNITROSAMINE, 924-16-3, 0.5% IN DIET BEGINNING POST CARCINOGEN TREATMENT AND CONTINUING TO WK 40 (STUDY DURATION: 40 WK), Route [Inhibitor]: ORAL, Species: RAT, Strain/Sex: F344/MALE, Target Tissue: Type of Lesion: URINARY BLADDER: PAPILLOMA, Dose [Carcinogen]: 100 MG/KG DIETHYLNITROSAMINE ONCE FOLLOWED BY 20 MG/KG N-METHYL-N-NITROSOUREA ON D 2, 5, 8 AND 11 THEN 0.05% N-N-DIBUTYL, Promoter: NONE USED); 5/20 (25%), 8/19 (42%), -68%, not calculated (Carcinogen: DIETHYLNITROSAMINE, 55-18-5, N-METHYL-NITROSOUREA, 684-93-5, N,N'-DIMETHYLHYDRAZINE, 540-73-8, N-BUTYL-N-(4-HYDROX, Carcinogen: DIETHYLNITROSAMINE, 55-18-5, N-METHYL-NITROSOUREA, 684-93-5, N,N'-DIMETHYLHYDRAZINE, 540-73-8, N-BUTYL-N-(4-HYDROX, 200 MG/KG BW IN CORN OIL 3/WK FOR 6 WK BEGINNING POST CARCINOGEN TREATMENT (STUDY DURATION: 28 WK), Route [Inhibitor]: GAVAGE, Species: RAT, Strain/Sex: F344/MALE, Target Tissue: Type of Lesion: KIDNEY: NEPHROBLASTOMA, Dose [Carcinogen]: 100 MG/KG BW DEN ONCE, 20 MG/KG BW MNU ONCE ON D 2, 5, 8 AND 11, 40 MG/KG BW DMH ON D 14, 17, 20 AND 23, 0.05% BHBN I, Dose [Carcinogen]: 100 MG/KG BW DEN ONCE, 20 MG/KG BW MNU ONCE ON D 2, 5, 8 AND 11, 40 MG/KG BW DMH ON D 14, 17, 20 AND 23, 0.05% BHBN I, Promoter: NONE USED). Also, the “tumour outcome (control, treated, inhibition, significance)” value (Carcinogen: DIETHYLNITROSAMINE, 55-18-5, N-METHYL-NITROSOUREA, 684-93-5, N,N'-DIMETHYLHYDRAZINE, 540-73-8, N-BUTYL-N-(4-HYDROX, Carcinogen: DIETHYLNITROSAMINE, 55-18-5, N-METHYL-NITROSOUREA, 684-93-5, N,N'-DIMETHYLHYDRAZINE, 540-73-8, N-BUTYL-N-(4-HYDROX, 200 MG/KG BW IN CORN OIL 3/WK FOR 6 WK BEGINNING POST CARCINOGEN TREATMENT (STUDY DURATION: 28 WK), Route [Inhibitor]: GAVAGE, Species: RAT, Strain/Sex: F344/MALE, Target Tissue: Type of Lesion: KIDNEY: RENAL CELL CARCINOMA, Dose [Carcinogen]: 100 MG/KG BW DEN ONCE, 20 MG/KG BW MNU ONCE ON D 2, 5, 8 AND 11, 40 MG/KG BW DMH ON D 14, 17, 20 AND 23, 0.05% BHBN I, Dose [Carcinogen]: 100 MG/KG BW DEN ONCE, 20 MG/KG BW MNU ONCE ON D 2, 5, 8 AND 11, 40 MG/KG BW DMH ON D 14, 17, 20 AND 23, 0.05% BHBN I, Promoter: NONE USED) is on record as 1/20 (5%), 0/19 (0%), 100%, not calculated; the “tumour outcome (control, treated, inhibition, significance)” value (Carcinogen: N-NITROSOMETHYLBENZYLAMINE, 937-40-6, 10 MG/KG IN CORN OIL 1/WK FOR 5 WK BEGINNING 3 HR PRIOR TO CARCINOGEN TREATMENT (STUDY DURATION: 15 WK), Route [Inhibitor]: GAVAGE, Species: RAT, Strain/Sex: SPRAGUE-DAWLEY/MALE, Target Tissue: Type of Lesion: ESOPHAGUS: TUMOR, Dose [Carcinogen]: 3 MG/KG 1/WK FOR 5 WK, Promoter: NONE USED) was 96%, 90%, 6%, not significant; the “tumour outcome (control, treated, inhibition, significance)” value (Carcinogen: N-NITROSOMETHYLBENZYLAMINE, 937-40-6, 100 MG/KG IN CORN OIL 1/WK FOR 5 WK BEGINNING 3 HR PRIOR TO CARCINOGEN TREATMENT (STUDY DURATION: 15 WK), Route [Inhibitor]: GAVAGE, Species: RAT, Strain/Sex: SPRAGUE-DAWLEY/MALE, Target Tissue: Type of Lesion: ESOPHAGUS: TUMOR, Dose [Carcinogen]: 3 MG/KG 1/WK FOR 5 WK, Promoter: NONE USED) is 96%, 63%, 34%, p<0.05; the “tumour outcome (control, treated, inhibition, significance)” value (Carcinogen: N-NITROSOMETHYLBENZYLAMINE, 937-40-6, 200 MG/KG IN CORN OIL 1/WK FOR 5 WK BEGINNING POST CARCINOGEN TREATMENT (STUDY DURATION: 15 WK), Route [Inhibitor]: GAVAGE, Species: RAT, Strain/Sex: SPRAGUE-DAWLEY/MALE, Target Tissue: Type of Lesion: ESOPHAGUS: TUMOR, Dose [Carcinogen]: 3 MG/KG 1/WK FOR 5 WK, Promoter: NONE USED) is on record as 96%, 96%, 0%, not significant; the “tumour outcome (control, treated, inhibition, significance)” value (Carcinogen: VINYL CARBAMATE, 15805-73-9, 8 UMOL IN 0.1 MOLAR STERILIZED POTASSIUM BUFFER ONCE 10 MIN PRIOR TO CARCINOGEN DOSE (STUDY DURATION: 22 WK), Route [Inhibitor]: GAVAGE, Species: MOUSE, Strain/Sex: ICR/FEMALE, Target Tissue: Type of Lesion: SKIN: PAPILLOMA, Dose [Carcinogen]: 5.8 UMOL IN 0.2 ML ACETONE ONCE, Promoter: 12-O-TETRADECANOYLPHORBOL 13-ACETATE, 16561-29-8) is 70%, 57%, 19%, not significant; the “tumour outcome (control, treated, inhibition, significance)” value (Carcinogen: VINYL CARBAMATE, 15805-73-9, 200 MG/KG BW ONCE AT 2 HR AND 1 D PRIOR TO CARCINOGEN DOSE (STUDY DURATION: 22 WK), Route [Inhibitor]: GAVAGE, Species: MOUSE, Strain/Sex: CD-1/FEMALE, Target Tissue: Type of Lesion: SKIN: PAPILLOMA, Dose [Carcinogen]: 11.5 UMOL IN 0.2 ML ACETONE ONCE, Promoter: 12-O-TETRADECANOYLPHORBOL-13-ACETATE, 16561-29-8) is reported as 58%, 29%, 50%, not calculated. The outcome (Carcinogen: N-NITROSOMETHYLBENZYLAMINE, 937-40-6, Dose [Inhibitor]: 200 MG/KG BW IN CORN OIL 1/WK FOR 5 WK BEGINNING 3 HR PRIOR TO EACH CARCINOGEN DOSE (STUDY DURATION: 15 WK), Route [Inhibitor]: GAVAGE, Species: RAT, Strain/Sex: SPRAGUE-DAWLEY/MALE, Target Tissue: Type of Lesion: ESOPHAGUS: TUMOR, Dose [Carcinogen]: 3.5 MG/KG BW 1/WK FOR 5 WK, Promoter: NONE USED) is recorded as 79%, 0, 100%, p<0.001.
